Laboratory results reported in patent publication US6989242B1, “Car receptors and related molecules and methods” (The General Hospital Coporation, priority 1992, dated 2006).

Tests used:
[1] = test system: TR/CAR chimera; experiment: Cotransfection of TR/CAR chimera with T3RE reporter, effect of added ligands; assay type: cell-based, human; conditions: JEG3 cells, charcoal-treated serum
Source text: To study the function of the putative ligand binding domain of the orphan, a chimeric receptor consisting of the C-terminal D, E and F domains of CAR (i.e., approximately amino acids 76-172, 173-319, and 320-348 of the CAR sequence, respectively) fused to the N-terminal A/B and C domains of TRβ was generated (termed TR/CAR), along with a control hybrid with the A/B and C domains of TR and the D, E and F domain of the glucocorticoid receptor (TR/GR). Vectors expressing these chimeras or the intact TR were cotransfected into JEG3 cells (ATCC Accession No: HTB 36) with reporter plasmids containing T3REs (i.e., of sequence […]; SEQ ID NO: 3) or GREs (from the MMTV promoter as described in Chandler et al., Cell 33:489, 1989) upstream of a reporter gene whose expression could be assayed. Transfections were carried out in the presence of serum treated with activated charcoal to remove T3 as well as other low molecular weight hydrophobic compounds that could act as CAR ligands.

[2] = target: T1, CAR (Homo sapiens, UniProt Q14994); experiment: Activation of the RARβ element by CAR in cotransfections, effect of protein kinase A/C pathway treatments; assay type: cell-based; conditions: cotransfection
T1 construct: expressed in transfected cells
T1 sequence (Q14994 1-348 isoform Q14994-2): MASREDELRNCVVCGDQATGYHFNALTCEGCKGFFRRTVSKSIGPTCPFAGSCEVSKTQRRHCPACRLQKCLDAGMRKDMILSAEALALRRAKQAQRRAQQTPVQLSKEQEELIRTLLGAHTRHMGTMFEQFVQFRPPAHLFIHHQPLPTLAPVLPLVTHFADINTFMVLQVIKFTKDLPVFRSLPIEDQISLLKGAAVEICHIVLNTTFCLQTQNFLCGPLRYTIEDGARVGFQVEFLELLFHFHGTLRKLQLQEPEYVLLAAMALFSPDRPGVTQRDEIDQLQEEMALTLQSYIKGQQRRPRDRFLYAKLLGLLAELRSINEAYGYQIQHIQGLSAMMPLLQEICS
Source text: Based on the constitutive activity of the TR/CAR chimera and the similarity of the DNA binding domain of CAR to other members of the superfamily, a number of response elements were screened for activation by the intact orphan in standard cotransfections. […] However, CAR did transactivate two wild type elements, the RAREs from the RARβ gene and the alcohol dehydrogenase (ADH) gene (i.e., […]; SEQ ID NO: 5). RAREs which were not transactivated by CAR included a potent up mutant version of the rat growth hormone gene T3RE/RARE (i.e., of sequence […]; SEQ ID NO:6; in tandem copies with the second copy inverted; described in Brent et al., Mol. Endocrinol. 3:1996, 1989) and the wild type version of the laminin T3RE/RARE (i.e., of sequence […]; SEQ ID NO: 8).
The activation of the RARβ element by CAR is not affected by several treatments that activate or inactivate signal transduction pathways mediated by protein kinases A or C. Thus, CAR activation was not altered by addition of dibutyryl cyclic AMP, by short or long term treatments with phorbol esters, or by cotransfections with vectors expressing the specific protein kinase A inhibitor peptide.

[3] = test system: βRARE; experiment: Transactivation of βRARE-TK luciferase reporter in cotransfected HepG2 cells; assay type: cell-based, human; conditions: various cell types and conditions, no added ligand
Source text: To determine whether mCAR1 transactivated the βRARE in the absence of retinoids or any other exogenously added ligands, this construct was cotransfected with a luciferase reporter plasmid in which 3 copies of the βRARE were inserted upstream of the TK promoter. To carry out these experiments, HepG2 cells were maintained and transfected using calcium phosphate or DEAE dextran (Ausubel et al., Current Protocols in Molecular Biology, Greene Pub. Assoc.: New York, 1997). mCAR1 and mCAR2 expression vectors were generated by inserting appropriate fragments into the vector CDM8 (Seed, Nature 329:840-842, 1987), as previously described for hCAR. The luciferase reporter plasmid (Gulick et al., Proc. Natl. Acad. Sci. USA 91:11012-11016, 1994) contained three copies of the βRARE upstream of the TK promoter. The reporter plasmids with wild type and mutant versions of the RARβ2 promoter have been described (Moghal et al., Mol. Cell. Biol. 15:3945-3959, 1995). […]
For the TK reporter, pairs of 30 mm dishes were each transfected with 2 μg of reporter and pTKGH, and a total of 2 μg of mammalian expression vector. […] Transfections were carried out in media containing 10% charcoal stripped serum, and luciferase activity was determined using the Promega luciferase assay system as described by the manufacturer. […]

[4] = target: T2, mCAR2 (splice variant lacking exon 8, 107 bp out-of-frame deletion; 6 new residues replace last 78 of mCAR1) (Mus musculus, UniProt O35627-2 O35627-2:1-286); experiment: EMSA; alone; conditions: tags: GenBank variant of mCAR1
T2 sequence: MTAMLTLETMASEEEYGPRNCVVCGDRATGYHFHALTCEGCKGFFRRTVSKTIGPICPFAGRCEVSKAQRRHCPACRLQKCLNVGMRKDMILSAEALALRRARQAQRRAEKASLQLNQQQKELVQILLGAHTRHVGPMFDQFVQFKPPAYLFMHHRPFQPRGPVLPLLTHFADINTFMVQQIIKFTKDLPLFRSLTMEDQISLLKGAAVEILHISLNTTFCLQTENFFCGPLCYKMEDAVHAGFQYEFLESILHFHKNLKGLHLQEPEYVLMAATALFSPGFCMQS
Source text: (§1) FIG. 7 is a photograph showing DNA binding by mCAR1 and mCAR2. mCAR1, mCAR2, RXR, and RAR proteins were expressed by in vitro translation and used for electrophoretic mobility shift assays with a βRARE probe as indicated. "S" indicates competition with the βRARE oligonucleotide, and "NS" competition with a nonspecific oligonucleotide. Equivalent amounts of mCAR1, mCAR2, and RAR were used in the binding reactions, as determined by ^35S-methionine labeling.
(§2) For DNA binding studies, mCAR1, mCAR2, RAR, and RXR proteins were expressed using coupled in vitro transcription and translation (Promega, Inc.). Standard conditions were used for electrophoretic mobility shift assays with the DR-5 response element from the RARβ2 promoter (the βRARE) as the probe, as described for hCAR (MB67). In these experiments, mCAR1/RXR heterodimers bound with high affinity to the RARE from the RARβ2 isoform promoter (Sucov et al., Proc. Natl. Acad. Sci. USA 87:5392–5396, 1990; de The et al., Nature 343:177–180, 1990) (FIG. 7). […] This lack of mCAR2 binding was consistent with the absence of the C-terminal portion of the ligand/dimerization domain, which is essential for heterodimerization.

[5] = target: RAR + RXR (UniProt P10276;P19793 P10276:1-462,P19793:1-462); experiment: EMSA; conditions: chain copies: heterodimer (stated)
RAR + RXR, sequence (P10276 whole entry, chain 1 of 2): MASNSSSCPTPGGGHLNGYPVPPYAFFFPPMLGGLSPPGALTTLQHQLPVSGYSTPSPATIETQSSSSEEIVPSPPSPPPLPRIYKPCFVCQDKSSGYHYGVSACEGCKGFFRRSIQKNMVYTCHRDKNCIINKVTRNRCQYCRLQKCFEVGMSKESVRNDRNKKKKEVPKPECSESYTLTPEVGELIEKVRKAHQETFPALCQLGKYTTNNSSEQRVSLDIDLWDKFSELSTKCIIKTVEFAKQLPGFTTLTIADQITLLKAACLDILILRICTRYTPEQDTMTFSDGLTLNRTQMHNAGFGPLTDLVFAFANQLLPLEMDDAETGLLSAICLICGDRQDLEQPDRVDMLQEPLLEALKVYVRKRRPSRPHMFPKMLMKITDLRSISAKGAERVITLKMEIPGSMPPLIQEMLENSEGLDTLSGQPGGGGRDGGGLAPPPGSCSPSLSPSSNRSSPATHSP
RAR + RXR, sequence (P19793 whole entry, chain 2 of 2): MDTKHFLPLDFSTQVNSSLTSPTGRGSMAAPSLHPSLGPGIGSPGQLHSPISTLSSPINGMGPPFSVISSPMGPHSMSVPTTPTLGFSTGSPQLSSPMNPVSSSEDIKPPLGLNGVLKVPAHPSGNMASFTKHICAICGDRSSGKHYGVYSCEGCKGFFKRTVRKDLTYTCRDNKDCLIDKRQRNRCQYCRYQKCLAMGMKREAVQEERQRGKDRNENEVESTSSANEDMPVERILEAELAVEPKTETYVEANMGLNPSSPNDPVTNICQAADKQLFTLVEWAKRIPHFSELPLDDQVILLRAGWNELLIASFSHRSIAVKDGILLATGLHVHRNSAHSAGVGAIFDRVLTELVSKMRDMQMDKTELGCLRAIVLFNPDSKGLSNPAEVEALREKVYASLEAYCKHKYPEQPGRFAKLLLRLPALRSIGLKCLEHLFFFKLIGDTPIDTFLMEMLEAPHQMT
Source text: as §1, §2

[6] = target: mCAR1 + RXR (Mus musculus, UniProt O35627;P19793 O35627:1-358,P19793:1-462); experiment: EMSA; high affinity; indistinguishable from RAR/RXR; conditions: chain copies: heterodimer (stated)
mCAR1 + RXR, sequence (P19793 whole entry, one chain of several): as the sequence (P19793 whole entry, chain 2 of 2) above
Source text: as §1, §2

[7] = target: mCAR2 + RXR (Mus musculus, UniProt O35627-2;P19793 O35627-2:1-286,P19793:1-462); experiment: EMSA; with RXR
mCAR2 + RXR, sequence (P19793 whole entry, one chain of several): as the sequence (P19793 whole entry, chain 2 of 2) above
Source text: as §1, §2

C[C@H](CCCC(C)(C)O)[C@H]1CC[C@H]2[C@@H]3CC=C4C[C@@H](O)CC[C@]4(C)[C@H]3CC[C@]12C [25-hydroxy cholesterol]
effect of added ligand on ligand-independent activation of T3RE reporter by TR/CAR chimera [1]: not altered

N[C@@H](Cc1cc(I)c(Oc2ccc(O)c(I)c2)c(I)c1)C(=O)O [T3]
effect of added ligand on ligand-independent activation of T3RE reporter by TR/CAR chimera [1]: not altered

C[C@]12CC[C@@H]3c4ccc(O)cc4CC[C@H]3[C@@H]1CC[C@@H]2O [astraddle]
effect of added ligand on ligand-independent activation of T3RE reporter by TR/CAR chimera [1]: not altered

CCCC(=O)Nc1ncnc2c1ncn2[C@@H]1O[C@@H]2COP(=O)(O)O[C@H]2[C@H]1OC(=O)CCC [dibutyryl cyclic AMP]
effect on CAR activation of the RARβ element [2]: not altered

CC1=C(/C=C/C(C)=C/C=C/C(C)=C/C(=O)O)C(C)(C)CCC1 [resinoid acid]
effect of added ligand on ligand-independent activation of T3RE reporter by TR/CAR chimera [1]: not altered

C[C@]12CC[C@H]3[C@@H](CCC4=CC(=O)CC[C@@]43C)[C@@H]1CC[C@@H]2O [testosterone]
effect of added ligand on ligand-independent activation of T3RE reporter by TR/CAR chimera [1]: not altered

B1: hCAR: human CAR receptor, 348 amino acids, SEQ ID NO:10 (protein, listed as Homo sapiens)
chain: T1 sequence (Q14994 1-348 isoform Q14994-2)
transactivation of βRARE reporter [3]: 20-100 fold

B2: betaRARE (RARbeta2 promoter DR-5) (dsDNA)
DNA 1: GGGTAGGGTTCACCGAAAGTTCACTCG
DNA 2: CGAGTGAACTTTCGGTGAACCCTACCC
binding result [4]: no binding
binding result [5]: binds
binding result [6]: binds
binding result [7]: no binding
